US6251925A, “Therapeutic biaryl derivatives” (Glaxo Wellcome Inc., priority 1998, dated 2001)

How the values were obtained:
Format in all cases: cell-based
[1] = target: human beta-2-adrenoceptor (Homo sapiens, UniProt P07550); test: extracellular cAMP accumulation in CHO-6CRE-luciferase cells expressing hβ2 (selectivity of hβ3 agonists); conditions: relative potency hβ3 vs hβ2, cAMP accumulation
Description: (§1) A particularly useful method for determining agonist activity at human atypical beta-adrenoceptors involves the use of Chinese hamster ovarian (CHO) cells transfected with the human beta-3-adrenoceptor according to Method 1.
(§2) General cell culture guidelines are observed (Fershney, R. A. (1987) Culture of animal cells: A manual of basic technique. VViley-Liss, Inc., N.Y.). A standard cell culture incubator is used (37° C., 5% CO2 in air, 95% relative humidity). H β3 CHO cells are grown in DMEM/F12 (with pyroxidine.HCl, 15 mM HEPES, L-glutamine), supplanted with 10% heat-inactivated FBS, 500 μg/ml G418, 2 mM L-glutamine, 100 units penicillin G and 100 μg streptomycin sulfate. One confluent flask of cells is trypsinised and resuspended in the above medium at a concentration of 30-40,000 cells/100 μl and plated into 96-well flat bottom plates. The cells are then used for assay within 18-24 hours.
(§3) The medium is aspirated from each well, and replaced with 180 μl DMEM/F12 with […] IBMX. Antagonists, if required, are added at this stage. The plate is then placed back in the incubator for 30 min. Drugs are then added to the wells (20 μl, 100 x required final concentration)for 60 min. Responses were determined by measuring cAMP levels of a 20 ul sample of extracellular media using a scintillation proximity based radio-immunoassay (NEN Flashplates). CHO-6CRE-iuciferase cell lines which stably express hβ3 receptors are seeded at 30,000 cells/well for 24 hr in DMEM/F12 containing 10% FBS. Media is removed from the cells and replaced with DMEM/F12 buffer (180 μl) containing […] IBMX and 1 mM ascorbic acid for 30 min prior to addition of compound. Vehicle or agonist (20 μl) is added and incubated at 37° C. for 60 minutes. At the end of the incubation period, samples of extracellular media are removed for direct assay in cAMP Flashplates (NEN).
(§4) As used herein, a compound is considered to be an agonist for hβ3if the compound stimulates the accumulation of extracellular cAMP with CHO-6CRE-luciferase cells expressing hβ3. […] The relative potency of a hβ3 agonist may be compared to its potency for stimulating the accumulation of extracellular cAMP with CHO-6CRE-luciferase cells expressing hβ2 and hβ1.

[2] = target: human beta-3-adrenoceptor (Homo sapiens, UniProt P13945); test: extracellular cAMP accumulation (agonist activity) in CHO-6CRE-luciferase cells expressing hβ3; conditions: CHO cells expressing hβ3, 60 min, 37° C.
Description: as §1, §2, §3, §4

[3] = target: human beta-1-adrenoceptor (Homo sapiens, UniProt P08588); test: extracellular cAMP accumulation in CHO-6CRE-luciferase cells expressing hβ1 (selectivity of hβ3 agonists); conditions: relative potency hβ3 vs hβ1, cAMP accumulation
Description: as §1, §2, §3, §4

Sequence of human beta-1-adrenoceptor (P08588 whole entry): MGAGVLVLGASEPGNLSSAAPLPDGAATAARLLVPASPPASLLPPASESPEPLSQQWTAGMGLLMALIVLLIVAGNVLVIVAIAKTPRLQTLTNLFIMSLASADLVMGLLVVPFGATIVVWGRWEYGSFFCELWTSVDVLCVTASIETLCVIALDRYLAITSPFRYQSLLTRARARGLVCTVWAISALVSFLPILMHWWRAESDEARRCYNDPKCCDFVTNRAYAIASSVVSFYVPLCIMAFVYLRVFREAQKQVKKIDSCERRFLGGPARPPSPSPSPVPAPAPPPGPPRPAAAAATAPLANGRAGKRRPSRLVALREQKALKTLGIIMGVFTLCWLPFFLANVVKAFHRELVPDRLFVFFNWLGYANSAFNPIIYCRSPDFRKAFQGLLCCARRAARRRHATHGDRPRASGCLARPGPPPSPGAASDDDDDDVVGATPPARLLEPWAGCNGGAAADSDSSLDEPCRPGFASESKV
Sequence of human beta-3-adrenoceptor (P13945 whole entry): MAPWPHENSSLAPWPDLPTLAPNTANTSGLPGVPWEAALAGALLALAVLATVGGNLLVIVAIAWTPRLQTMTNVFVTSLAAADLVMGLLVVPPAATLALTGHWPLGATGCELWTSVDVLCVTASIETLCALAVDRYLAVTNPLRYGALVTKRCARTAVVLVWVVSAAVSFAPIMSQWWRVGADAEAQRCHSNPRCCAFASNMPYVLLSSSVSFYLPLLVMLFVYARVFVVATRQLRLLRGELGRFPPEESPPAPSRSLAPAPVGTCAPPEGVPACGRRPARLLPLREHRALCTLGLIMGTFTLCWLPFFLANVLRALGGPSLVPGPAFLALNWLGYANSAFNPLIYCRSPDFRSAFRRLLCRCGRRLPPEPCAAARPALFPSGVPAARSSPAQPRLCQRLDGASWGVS
Sequence of human beta-2-adrenoceptor (P07550 whole entry): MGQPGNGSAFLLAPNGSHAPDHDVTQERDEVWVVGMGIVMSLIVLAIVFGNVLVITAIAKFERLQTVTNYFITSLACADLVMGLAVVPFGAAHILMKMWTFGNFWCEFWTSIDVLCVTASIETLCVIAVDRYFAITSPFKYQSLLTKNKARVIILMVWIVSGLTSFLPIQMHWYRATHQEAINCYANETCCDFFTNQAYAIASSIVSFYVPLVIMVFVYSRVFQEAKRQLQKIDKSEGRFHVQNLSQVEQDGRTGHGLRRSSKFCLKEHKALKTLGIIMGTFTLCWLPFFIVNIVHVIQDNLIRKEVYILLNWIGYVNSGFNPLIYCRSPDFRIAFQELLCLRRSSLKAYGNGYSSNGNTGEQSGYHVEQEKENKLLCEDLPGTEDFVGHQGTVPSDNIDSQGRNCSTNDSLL

SMILES	times more potent at hβ3 than at hβ2 [1]	EC50 [2]	times more potent at hβ3 than at hβ1 [3]
O=C(O)c1cccc(-c2cccc(NCCNC[C@H](O)c3cccc(Cl)c3)c2)c1 [Example 10, (R)-3'-[[2-[[2-(3-Chlorophenyl)-2-hydroxyethyl]amino]ethyl]amino]-[1,1'-biphenyl]-3-carboxylic acid]	at least 100 times	≤ 1 nM	at least 100 times
O=C(O)c1cc(-c2cccc(NCCNC[C@H](O)c3cccc(Cl)c3)c2)cc2c1OCC2 [Example 23]	at least 100 times	≤ 100 nM	at least 100 times
C[C@H](CNc1cccc(-c2ccc(C(=O)O)cc2C(=O)O)c1)NC[C@H](O)c1cccc(Cl)c1 [Example 20, 3'-[[2R-[[2-(3-Chlorophenyl)-2R-hydroxyethyl]amino]propyl]amino]-[1,1'-biphenyl]-2,4-dicarbonylic acid]	at least 100 times	≤ 1 nM	at least 100 times
C[C@H](CNc1cccc(-c2cncc(C(=O)O)c2)c1)NC[C@H](O)c1cccc(Cl)c1 [Example 21, 5-[3-[[2R-[[2-(3-Chlorophenyl)-2R-hydroxyethyl]amino]propyl]amino]phenyl]-3-pyridinecarboxylic acid]	at least 100 times	≤ 100 nM	at least 100 times
C[C@H](CNc1cccc(-c2ncccc2C(=O)O)c1)NC[C@H](O)c1cccc(Cl)c1 [Example 22, 2-[3-[[2R-[[2-(3-Chlorophenyl)-2R-hydroxyethyl]amino]propyl]amino]phenyl]-3-pyridinecarboxylic acid]	at least 100 times	≤ 100 nM	at least 100 times
COC(=O)c1cc(C(=O)O)ccc1-c1cccc(NCCNC[C@H](O)c2cccc(Cl)c2)c1 [Example 11, (R)-3'-[[2-[[2-(3-Chlorophenyl)-2-hydroxyethyl]amino]ethyl]amino]-[1,1'-biphenyl]-2,4-dicarboxylic acid 2-methyl ester]	at least 100 times	≤ 100 nM	at least 100 times

Further lines, results first:

times more potent at hβ3 than at hβ2 [1]	EC50 [2]	times more potent at hβ3 than at hβ1 [3]	SMILES
at least 100 times	≤ 100 nM	at least 100 times	O=C(O)c1ccc(-c2cccc(NCCNC[C@H](O)c3cccc(Cl)c3)c2)c(C(=O)O)c1 [Example 12, (R)-3'-[[2-[[2-(3-Chlorophenyl)-2-hydroxyethyl]amino]ethyl]amino]-[1,1'-biphenyl]-2,4-dicarboxylic acid]
at least 100 times	≤ 100 nM	at least 100 times	O=C(O)c1cccc(-c2cccc(NCCNC[C@H](O)c3cc(Cl)cc(Cl)c3)c2)c1 [Example 9, (R)-3'-[[2-[[2-(3,5-Dichlorophenyl)-2-hydroxyethyl]amino]ethyl]amino]-[1,1'-biphenyl]-3-carboxylic acid]
at least 100 times	≤ 100 nM	at least 100 times	O=C(O)c1ccc(-c2cccc(NCCNC[C@H](O)c3cccc(Cl)c3)c2)cc1Cl [Example 14, (R)-3'-[[2-[[2-(3-Chlorophenyl)-2-hydroxyethyl]amino]ethyl]amino]-[1,1'-biphenyl]-3-chloro-4-carboxylic acid]
at least 100 times	≤ 1 nM	at least 100 times	O=C(O)c1cncc(-c2cccc(NCCNC[C@H](O)c3cccc(Cl)c3)c2)c1 [Example 24, (R)-5-[3-[[2-[[2-(3-chlorophenyl)-2-hydroxyethyl]amino]ethyl]amino]phenyl]-3-pyridinecarboxylic acid]
at least 100 times	≤ 100 nM	at least 100 times	O=C(O)c1cccc(-c2cccc(OCCNC[C@H](O)c3cccc(Cl)c3)c2)c1 [Example 17]
at least 100 times	≤ 1 nM	at least 100 times	O=C(O)c1cccc(-c2cccc(NCCNC[C@@H](O)COc3ccccc3)c2)c1 [Example 16]
at least 100 times	–	at least 100 times	Cc1ccc(C(=O)O)cc1-c1cccc(NCCNC[C@H](O)c2cccc(Cl)c2)c1 [Example 13, (R)-3'-[[2-[[2-(3-Chlorophenyl)-2-hydroxyethyl]amino]ethyl]amino]-[1,1'-biphenyl]-2-methyl-5-carboxylic acid]
